Reference: patent publication US12440527B2, “Organic sol-gel nano-composition from panax notoginseng, rutin, ginkgo biloba effective in enhancing cerebral and cardiovascular protection and method of producing thereof” (priority 2020, dated 2025)

Columns and labels:
Assay type in all cases: in vivo
white mice = test: Sedative effect on the advanced plus model (close/open branch)
Description: (§1) In the test, the white mice were randomly divided into 4 batches, each batch having 10 animals: Batch 1 (biological control) was subjected to oral administration of 20 mL/kg/day distilled water; batch 2 (positive control) was subjected to oral administration of 2.4 mg/kg/day diazepam; batch 3 was subjected to oral administration of the composition at dose of 0.96 pill/kg/day (equivalent to the clinical dose); batch 4 was subjected to oral administration of the composition at dose of 2.88 pill/kg/day (3 times as much as the clinical dose).

[1] = test system: white mice injected with nikethamide; test: Anticonvulsant effect after nikethamide injection
Description: as §1, with “dose). After the mice were injected with nikethamide, the time of convulsion onset and the death time of the mice were taken.” for “dose).”

[2] = test system: white mice injected with nitroglycerin (NTG), chronic migraine model; test: Vasomotor pain relieving effect on chronic migraine model (nitroglycerin injection, dolorimeter); details: oral 40 mg/kg propranolol, NTG 10 mg/kg
Description: In the test, the white mice were randomly divided into 5 batches, each batch having 10 animals: Batch 1 (biological control) was subjected to oral administration of 0.2 ml/10 g water; batch 2 (model) injected 10 mg/kg with nitroglycerin (NTG) was subjected to oral administration of 0.2 mL/10 g water; batch 3 (positive control) injected with 10 mg/kg nitroglycerin was subjected to oral administration of 40 mg/kg propranolol; batch 4 injected with 10 mg/kg nitroglycerin was subjected to oral administration of the composition at dose of 0.96 pill/kg/day (equivalent to the clinical dose); batch 5 injected with 10 mg/kg nitroglycerin was subjected to oral administration of the composition at dose of 2.88 pill/kg/day (3 times as much as the clinical dose).

[3] = After 7 days of oral administration of the drug, Diazepam at 2.4 mg/kg/day
[4] = Before oral administration of the drug, Diazepam at 2.4 mg/kg/day batch

CN1C(=O)CN=C(c2ccccc2)c2cc(Cl)ccc21 [Diazepam, diazepam]
Avoidance rate at the open branch (white mice; [3]): 46.37 ± 9.21 | Number of times of mouse introduction into the close branch (white mice; [3]): 6.40 | Number of times of mouse introduction into the open branch (white mice; [3]): 6.90 | Time of mouse introduction into the close branch (white mice; [3]): 121.20 s | Time of mouse introduction into the open branch (white mice; [3]): 150.10 s | Avoidance rate at the open branch (white mice; [4]): 69.21 ± 8.88 | Number of times of mouse introduction into the close branch (white mice; [4]): 11.50 | Number of times of mouse introduction into the open branch (white mice; [4]): 4.30 | Time of mouse introduction into the close branch (white mice; [4]): 173.70 s | Time of mouse introduction into the open branch (white mice; [4]): 90.40 s | Effect on time of convulsion onset and death time vs model batch ([1]; 2.4 mg/kg/day diazepam, after nikethamide injection): took effects in prolonging the time of convulsion onset and the death time | Death time of the mice after nikethamide injection ([1]; Diazepam at 2.4 mg/kg/day oral): 14.91 ± 3.67 min | Time of convulsion onset ([1]; Diazepam at 2.4 mg/kg/day oral, after nikethamide injection): 2.08 ± 0.55 min

CC(C)NCC(O)COc1cccc2ccccc12 (centres unmarked) [Propranolol, propranolol]
Pain-inducing force in the dolorimeter (baseline pain threshold) ([2]; Day 3): 7.6 ± 1.5 g | Pain-inducing force on the dolorimeter (pain threshold after treatment) ([2]; Day 3): 6.8 ± 1.2 g | Pain-inducing force in the dolorimeter (baseline pain threshold) ([2]; Day 5): 6.5 ± 1.1 g | Pain-inducing force on the dolorimeter (pain threshold after treatment) ([2]; Day 5): 7.0 ± 1.0 g | Pain-inducing force in the dolorimeter (baseline pain threshold) ([2]; Day 7): 6.4 ± 1.0 g | Pain-inducing force on the dolorimeter (pain threshold after treatment) ([2]; Day 7): 6.7 ± 0.5 g | Pain-inducing force in the dolorimeter (baseline pain threshold) ([2]; Day 9): 7.1 ± 0.9 g | Pain-inducing force on the dolorimeter (pain threshold after treatment) ([2]; Day 9): 6.7 ± 0.5 g | Pain-inducing force in the dolorimeter (baseline pain threshold) ([2]; Day 11): 7.1 ± 1.0 g | Pain-inducing force on the dolorimeter (pain threshold after treatment) ([2]; Day 11): 7.8 ± 0.7 g
